Legend:
MMP-2 (gelatinase A) = target: T1, MMP-2 (gelatinase A) (Homo sapiens, UniProt P08253); test: MMP-2 (gelatinase A) inhibitory activity, FITC-labeled type IV collagen degradation; format: biochemical; conditions: 50% inhibition of collagen type IV degradation; activated pro MMP-2 from transfected COS-1 cells; 42° C., 4 h
T1 construct: made in house; host or cells: COS-1 cells transfected with human pro-MMP-2 cDNA (secreted into culture medium)
T1 sequence (P08253 110-660): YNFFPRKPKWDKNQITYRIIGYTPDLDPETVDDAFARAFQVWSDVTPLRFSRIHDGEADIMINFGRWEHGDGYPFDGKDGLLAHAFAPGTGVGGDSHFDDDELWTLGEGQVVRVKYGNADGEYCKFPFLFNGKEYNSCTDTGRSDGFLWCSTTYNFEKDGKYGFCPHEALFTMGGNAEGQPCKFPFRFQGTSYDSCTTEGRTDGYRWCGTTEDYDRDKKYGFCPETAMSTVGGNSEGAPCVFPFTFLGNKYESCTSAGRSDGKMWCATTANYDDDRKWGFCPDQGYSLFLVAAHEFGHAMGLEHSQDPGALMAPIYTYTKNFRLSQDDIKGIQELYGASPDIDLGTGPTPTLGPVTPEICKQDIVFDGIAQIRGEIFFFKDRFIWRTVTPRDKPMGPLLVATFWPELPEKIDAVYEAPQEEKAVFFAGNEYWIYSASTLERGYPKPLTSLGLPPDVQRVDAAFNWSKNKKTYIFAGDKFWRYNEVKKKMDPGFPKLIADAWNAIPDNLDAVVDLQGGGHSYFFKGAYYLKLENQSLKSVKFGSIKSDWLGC
Protocol: (§1) Experiment 2: MMP-2 (gelatinase A) and MMP-9 (gelatinase B) inhibitory activities.
(§2) Pro MMP-2 was obtained from culture medium separated from human pro-MMP-2 cDNA tranfected COS-1 cells. It was activated by 1 mM (p-aminophenyl)mercury acetic acid, and MMP-9, derived human fibrosarcome,was purchased from Yagai Co. Ltd. Inhibition of both enzyme activities were estimated by enzyme assay using type IV collagenase activity assay kit (Yagai Co. Ltd., Biswaz, C. et al., J. Cell.Biochem., 28, 39 (1984)). MMP-2 or MMP-9 (0.01 U/ml), test compound (several concentrations), and FITC-labeled type IV collagen (derived bovine placenta, 25 μg) were incubated in 100 μl of 0.05M Tris - HCl buffer (pH 7.5) containing 200 mM NaCl and 5 mM CaCl2 at 42° C. for 4 h. Inhibitory activity of compound was evaluated by same as that of MMP-1 assay. Unchanged type IV collagen was precipitated by centrifugation, and the degradation percent of substrate was calculated by comparison with a fluorescence intensity of heat denatured substrate as 100%. Inhibition of enzyme activity was expressed as an IC50 value which was the concentration of test compound necessary to produce 50% inhibition of collagen type IV degradation by enzyme.

MMP-9 (gelatinase B) = target: T2, MMP-9 (gelatinase B) (Homo sapiens, UniProt P14780); test: MMP-9 (gelatinase B) inhibitory activity, FITC-labeled type IV collagen degradation; format: biochemical; conditions: 50% inhibition of collagen type IV degradation; MMP-9 derived from human fibrosarcoma; 42° C., 4 h
T2 construct: purchased Yagai Co. Ltd; host or cells: human fibrosarcoma
T2 sequence (P14780 94-707): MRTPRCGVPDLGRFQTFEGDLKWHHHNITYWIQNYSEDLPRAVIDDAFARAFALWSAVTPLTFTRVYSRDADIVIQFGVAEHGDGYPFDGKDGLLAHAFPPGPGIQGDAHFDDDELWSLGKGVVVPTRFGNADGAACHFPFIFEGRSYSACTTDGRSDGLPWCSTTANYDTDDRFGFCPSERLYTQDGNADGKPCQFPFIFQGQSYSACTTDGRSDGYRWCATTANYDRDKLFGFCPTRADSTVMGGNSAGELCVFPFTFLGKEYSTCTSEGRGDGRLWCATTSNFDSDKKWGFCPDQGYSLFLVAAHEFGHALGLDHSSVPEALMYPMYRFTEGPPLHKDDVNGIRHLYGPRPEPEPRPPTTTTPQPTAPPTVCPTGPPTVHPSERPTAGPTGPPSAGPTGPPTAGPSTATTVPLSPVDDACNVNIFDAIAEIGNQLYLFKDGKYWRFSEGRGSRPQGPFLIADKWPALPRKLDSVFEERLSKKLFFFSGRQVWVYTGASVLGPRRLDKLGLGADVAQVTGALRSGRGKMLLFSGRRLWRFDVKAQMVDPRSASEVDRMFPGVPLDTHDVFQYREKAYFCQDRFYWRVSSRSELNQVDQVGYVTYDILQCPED
Protocol: as §1, §2

SMILES | IC50 (MMP-2 (gelatinase A)) [µM] | IC50 (MMP-9 (gelatinase B)) [µM]
CNC(=O)[C@H](Cc1ccc(OC)cc1)NC(=O)[C@H](CCCCOc1ccc(OC)cc1)CC(=O)NO [Compound 51, (2S)-2-[(2R)-2-(2'-Hydroxyamino-2'-oxo-ethyl)-6-[(4-methoxyphenyl)oxy]-hexanoyl]amino-3-(4-methoxy)phenylpropanoylmethylamide] | 0.0025 | 0.00028
CCOc1ccc(C[C@H](NC(=O)[C@H](CCCOc2ccc(OC)cc2)CC(=O)NO)C(=O)NC)cc1 [Compound 52, (2S)-2-[(2R)-2-(2'-Hydroxyamino-2'-oxo-ethyl)-5-[(4-methoxyphenyl)oxy]-pentanoyl]amino-3-(4-ethoxy)phenylpropanoylmethylamide] | 0.001 | 0.00012
CNC(=O)[C@@H](NC(=O)[C@@H](CC(=O)NO)CC(C)(C)COC)C(C)(C)C [Compound 60, N-[(2R)-2-(2'-Hydroxyamino-2'-oxo-ethyl)-4,4-dimethyl-5-methoxy-pentanoyl]-L-tert-leucine N-Methylamide] | > 10 | 6.8
COc1ccc(OCCC[C@H](CC(=O)O)C(=O)N[C@H](C(=O)NC(C)(C)C)C(C)(C)C)cc1 [Compound 25, N-[(2R)-2-(1'-Carboxymethyl)-5-[(4-methoxyphenyl)oxy]pentanoyl]-L-tert-leucine N-tert-Butylamide] | 0.2 | 0.028
COc1ccc(C[C@H](NC(=O)[C@H](CCCOc2ccc(OC)cc2)CC(=O)O)C(=O)NC(C)(C)C)cc1 [Compound 19, (2S)-2-[(2R)-2-(1'Carboxymethyl)-5-[(methoxyphenyl)oxy]pentanoyl]amino-3-(4-methoxy)phenylpropanoyl-tert-butylamide] | 0.076 | 0.013
COc1ccc(OCCC[C@H](CC(=O)O)C(=O)N[C@H](C(=O)NCCS(N)(=O)=O)C(C)(C)C)cc1 [Compound 26] | 0.048 | 0.0065
CNC(=O)[C@H](Cc1ccc(OC)cc1)NC(=O)[C@H](CCCOc1ccc(OC)cc1)CC(=O)OCc1oc(=O)oc1C [Compound 63, (2S)-2-[(2R)-2-(2'-(5-Methyl-2-oxo-1,3-dioxolen-4-yl)-methylene-oxy-2'-oxo-ethyl]-5-[(4-methoxyphenyl)oxy]-pentanoyl]amino-3-(4-methoxy)phenylpropanoylmethylamide] | 1.6 | 0.14
CNC(=O)[C@H](Cc1ccccc1)NC(=O)[C@H](CCCOc1ccc(OC)cc1)CC(=O)NO [Compound 40, N-[(2R)-2-(2'-Hydroxyamino-2'-oxo-ethyl)-5-[(4-methoxyphenyl)oxy]pentanoyl]-L-phenylalanine N-Methylamide] | 0.001 | 0.00018
CNC(=O)[C@H](Cc1ccccc1)NC(=O)[C@H](CCCCOc1ccc(OC)cc1)CC(=O)O [Compound 14] | 0.16 | 0.12
CNC(=O)[C@H](Cc1ccccc1)NC(=O)[C@@H](CC(=O)NO)CC(C)(C)COC [Compound 58, N-[(2R)-2-(2'-Hydroxyamino-2'-oxo-ethyl)-4,4-dimethyl-5-methoxy-pentanoyl]-L-phenylalanine N-Methylamide] | > 10 | 2.2
COc1ccc(C[C@H](NC(=O)[C@H](CCCOc2ccc(OC)cc2)CC(=O)O)C(=O)NCCS(N)(=O)=O)cc1 [Compound 20] | 0.016 | 0.0029
CNC(=O)[C@H](Cc1ccccc1)NC(=O)[C@H](CCCc1ccc2cccccc1-2)CC(=O)NO [Compound 35, N-[(2R)-2-(2'-Hydroxyamino-2'-oxo-ethyl)-5-(azulene-1-yl)-pentanoyl]-L-phenylalanine N-Methylamide] | 1.3 | 2.5
CCOc1ccc(OCCCC[C@H](CC(=O)NO)C(=O)N[C@@H](Cc2ccccc2)C(=O)NC)cc1 [Compound 45, N-[(2R)-2-(2'-Hydroxyamino-2'-oxo-ethyl)-6-[(4-ethoxy-phenyl)oxy]hexanoyl]-L-phenylalanine N-Methylamide] | 0.004 | 0.00072
CCOc1ccc(C[C@H](NC(=O)[C@H](CCCCOc2ccc(OC)cc2)CC(=O)O)C(=O)NC)cc1 [Compound 23, (2S)-2-[(2R)-2-(1'-Carboxymethyl)-6-[(4-methoxyphenyl)oxy]hexanoyl]amino-3-(4-ethoxy)phenylpropanoylmethylamide] | 0.2 | 0.051
CNC(=O)[C@@H](NC(=O)[C@H](CCCOc1ccc(OC)cc1)CC(=O)NO)C(C)(C)C [Compound 54, N-[(2R)-2-(2'-Hydroxyamino-2'-oxo-ethyl)-5-[(4-methoxyphenyl)oxy]-pentanoyl]-L-tert-leucine N-Methylamide] | 0.0056 | 0.00011
CNC(=O)[C@H](Cc1ccc(OC)cc1)NC(=O)[C@H](CCOc1ccc(OC)cc1)CC(=O)O [Compound 17, (2S)-2-[(2R)-2-(1'-Carboxymethyl)-4-[(4-methoxyphenyl)-oxy]butyroyl]amino-3-(4-methoxy)phenylpropanoylmethylamide] | 0.046 | 0.013
CNC(=O)[C@@H]1Cc2ccccc2CN1C(=O)[C@H](CCCOc1ccc(OC)cc1)CC(=O)NO [Compound 57, N-[(2R)-2-(2'-Hydroxyamino-2'-oxo-ethyl)-5-[(4-methoxyphenyl)oxy]pentanoyl]-L-tetrahydroisoquinoline N-Methylamide] | 0.037 | 0.023
COc1ccc(OCCC[C@H](CC(=O)NO)C(=O)N[C@H](C(=O)NC(C)(C)C)C(C)(C)C)cc1 [Compound 55, N-[(2R)-2-(2'-Hydroxyamino-2'-oxo-ethyl)-5-[(4-methoxyphenyl)oxy]-pentanoyl]-L-tert-leucine N-tert-Butylamide] | 0.021 | 0.00023
CCOc1ccc(C[C@H](NC(=O)[C@H](CCc2ccc3cccccc2-3)CC(=O)NO)C(=O)NC)cc1 [Compound 36, (2S)-2-[(2R)-2-(2'-Hydroxyamino-2'-oxo-ethyl)-4-(azulene-1-yl)butyloyl]amino-3-(4-ethoxy)phenylpropanoylmethylamide] | 0.18 | 0.024
CNC(=O)[C@H](Cc1ccccc1)NC(=O)[C@H](CCc1ccc2cccccc1-2)CC(=O)NO [Compound 32, N-[(2R)-2-(2'-Hydroxyamino-2'-oxo-ethyl)-4-(azulene-1-yl)-butyloyl]-L-phenylanine N-Methylamide] | 3.2 | 0.4
CCOc1ccc(OCC[C@H](CC(=O)O)C(=O)N[C@@H](Cc2ccccc2)C(=O)NC)cc1 [Compound 9, N-[(2R)-2-(1'-Carboxymethyl)-4-[(4-ethoxyphenyl)oxy]butyroyl]-L-phenylalanine N-Methylamide] | 0.049 | 0.039
COc1ccc(OCCC[C@H](CC(=O)NO)C(=O)N[C@H](C(=O)NCCS(N)(=O)=O)C(C)(C)C)cc1 [Compound 56, 2-[N-[(2R)-2-(2'-Hydroxyamino-2'-oxo-ethyl)-5-[(4-methoxyphenyl)oxy]pentanoyl]-L-tert-leucyl]amino-ethanesulfonamide] | 0.0023 | 0.00026
CNC(=O)[C@H](Cc1ccc(OC)cc1)NC(=O)[C@H](CCCOc1ccc(OC)cc1)CC(=O)NO [Compound 48, (2S)-2-[(2R)-2-(2'-Hydroxyamino-2'-oxo-ethyl)-5-[(4-methoxyphenyl)oxy]-pentanoyl]amino-3-(4-methoxy)phenyl-propanoylmethylamide] | 0.009 | 0.00015
CNC(=O)[C@H](Cc1ccc(OC)cc1)NC(=O)[C@H](CCOc1ccc(OC)cc1)CC(=O)NO [Compound 47, (2S)-2-[(2R)-2-(2'-Hydroxyamino-2'-oxo-ethyl)-4-[(4-methoxyphenyl)oxy]-butyloyl]amino-3-(4-methoxy)phenylpropanoylmethylamide] | 0.011 | 0.0012
CNC(=O)[C@@H](NC(=O)[C@H](CCc1ccc2cccccc1-2)CC(=O)NO)C(C)(C)C [Compound 34, N-[(2R)-2-(2'-Hydroxyamino-2'-oxo-ethyl)-4-(azulene-1-yl)-butyloyl]-L-tert-leucine N-Methylamide] | 0.76 | 0.052

— patent US5990158A, “Carboxylic acid derivatives, method of manufacturing the same and therapeutic agents containing these compounds” (Kotobuki Seiyaku Co., Ltd., priority 1996, dated 1999)
